From patent US9340616B2, “Methods and compositions for heptameric targeting ligands” (The University of North Carolina at Chapel Hill, priority 2011, dated 2016) come the findings set out here.

The test system of test [1] is HER2-positive SK-OV3 cells. Description: MTS cell proliferation assay, SK-OV3. It is filed as cell-based. Conditions: 10 μM, 24 h, positive control. As for the experimental part: (§1) FIGS. 10A-C. Cellular toxicity of heptameric molecules. A) A431 (EGFR), B) SK-OV3 (HER2), and C) LNCaP cells were incubated with 1 uM of each of the heptamer molecules for 24 hours at 37° C. Cisplatin (10 uM) was also incubated with each of the cells as a positive control. Cells without incubation with any proteins or cisplatin were used as a negative control.
(§2) A CellTiter96 Aqueous Non-Radioactive Cell Proliferation Assay kit from Promega (Madison, Wis.) was used for MTS assay. Approximately 10^4 cells were seeded on each well in a 96-well plate and grown for 16 hours at 37° C. Each heptameric molecule was incubated with the cells for 24 hours and Cis-platinum (II) diamine dichloride (cisplatin, CDDP) (Sigma-Aldrich Chemical Co) was used as positive control. 20 μl of MTS/PMS solution was added into each well followed by incubation for 4 hours at 37° C. The absorbance at 490 nm was recorded using an ELISA plate reader.
(§3) A CellTiter96 Aqueous Non-Radioactive Cell Proliferation Assay kit from Promega (Madision, Wis.) was used for the MTS assay. Approximately 1×10^4 cells were seeded in each well of a 96-well plate and grown for 16 h at 37° C. Each heptameric molecule was incubated with the cells for 24 h. 10 μM Cis-platinum (II) diamine dichloride (Sigma-Aldrich Chemical Co, St Louis, Mo.) was used as a positive control. […] The absorbance at 490 nm was recorded using an ELISA plate reader.
A general note: Tetrazolium dyes change colour on reduction, which living cells bring about.

Another test concerns EGFR-positive A431 cells. Description: MTS cell proliferation assay, A431. It is filed as cell-based. Conditions: 10 μM, 24 h, positive control. The procedure: as §1, §2, §3

SMILES strings stand for the structures.

`N.N.[Cl][Pt][Cl]` [cisplatin, Cis-platinum (II) diamine dichloride]: the “cell proliferation inhibited to” value (in test [1]; in the test with EGFR-positive A431 cells) was 50% each time.
